The values that follow come from patent publication US11304957B2, “Substituted quinazolines for inhibiting kinase activity” (NeuPharma, Inc., priority 2013, dated 2022).

Common to all, as to format: biochemical
One assay deals with FGFR1 (Homo sapiens (Human), UniProt P11362). In words: Z'-LYTE kinase inhibition assay, FGFR1. Conditions: read-out: % inhibition FGFR1; heading: % inhibition FGFR1; compound at 0.041 μM. As to the method:
(§1) Inhibitory activities of compounds against BTK, EGFR and EGFR mutants (EGFR L858R, EGFR T790M, EGFR L858R/T790M), FGFR1, FGFR2, JAK2, JAK3 and KDR were measured by Invitrogen using Z′-LYTE® Method as briefly described in the following.
(§2) Test Compounds are screened in 1% DMSO (final) in the well. For 10 point titrations, 3-fold serial dilutions are conducted from the starting concentration. All ATP Solutions are diluted to a 4× working concentration in Kinase Buffer (50 mM HEPES pH 7.5, 0.01% BRIJ-35, 10 mM MgCl2, 1 mM EGTA). Peptide/Kinase Mixtures are diluted to a 2× working concentration in the appropriate Kinase Buffers as described below.
(v) Peptide/Kinase Mixtures for Measurement of FGFR1:
The 2×FGFR1/Tyr 04 mixture is prepared in 50 mM HEPES pH 7.5, 0.01% BRIJ-35, 10 mM MgCl2, 4 mM MnCl2, 1 mM EGTA, 2 mM DTT. The final 10 μL Kinase Reaction consists of 0.41-3.5 ng FGFR1 and 2 μM Tyr 04 in 50 mM HEPES pH 7.5, 0.01% BRIJ-35, 10 mM MgCl2, 2 mM MnCl2, 1 mM EGTA, 1 mM DTT. After the 1 hour Kinase Reaction incubation, 5 μL of a 1:64 dilution of Development Reagent B is added.
(§3) Reaction starts by 30-second shaking of mixture consisting of 2.5 μL 4× test compound, 5 μL 2× kinase reaction mixture and 2.5 μL 4×ATP Solution on Bar-coded Corning, low volume NBS, black 384-well plate (Corning Cat. #3676). Then the mixture is incubated for 60-minute at room temperature for the kinase reaction, followed by addition of 5 μL of a 1:1024 dilution of development reagent A and 30-second plate shake. The mixture is then incubated for another 60-minute at room temperature for development reaction. Finally fluorescence is read by plate reader.
(§4) To determine IC50 of a compound against EGFR, EGFR mutant and other kinases, a series of concentrations of the compound were tested for the inhibition. […] The scale utilized in Table 4 is as follows: +++ less than 100 nM, ++ 100-500 nM and + greater than 500 nM.

Another assay concerns the target BTK (Homo sapiens (Human), UniProt Q06187). Kind of assay: Z'-LYTE kinase inhibition assay, BTK. The following applies: read-out: % inhibition BTK; heading: % inhibition BTK; compound at 0.041 μM. Here is the method:
as §1, §2
(v) Peptide/Kinase Mixtures for Measurement of BTK:
The 2×BTK/Tyr 01 mixture is prepared in 50 mM HEPES pH 7.5, 0.01% BRIJ-35, 10 mM MgCl2, 1 mM EGTA.
The mixture is then incubated for another 60-minute at room temperature for development reaction. Finally fluorescence is read by plate reader.
as §4

The next assay addresses JAK2 (Homo sapiens (Human), UniProt O60674). Kind of assay: Z'-LYTE kinase inhibition assay, JAK2. Conditions: read-out: % inhibition JAK2; heading: % inhibition JAK2; compound at 0.041 μM. As to the method: as §1, §2
(v) Peptide/Kinase Mixtures for Measurement of JAK2:
The 2×JAK2/Tyr 06 mixture is prepared in 50 mM HEPES pH 7.5, 0.01% BRIJ-35, 10 mM MgCl2, 1 mM EGTA. The final 10 μL Kinase Reaction consists of 0.06-0.81 ng JAK2 and 2 μM Tyr 06 in 50 mM HEPES pH 7.5, 0.01% BRIJ-35, 10 mM MgCl2, 1 mM EGTA. After the 1 hour Kinase Reaction incubation, 5 μL of a 1:64 dilution of Development Reagent A is added.
as §3

The target in a further assay is EGFR (ErbB1) T790M L858R (Homo sapiens (Human), UniProt P00533, L858R/T790M). In words: Z'-LYTE kinase inhibition assay, EGFR L858R/T790M. Conditions: for inhibition at 0.0137 µM: read-out: % inhibition EGFR L858R/T790M (Compound at 0.0137 μM). Here is the method: Inhibitory activities of compounds against BTK, EGFR and EGFR mutants (EGFR L858R, EGFR T790M, EGFR L858R/T790M), FGFR1, FGFR2, JAK2, JAK3 and KDR were measured by Invitrogen using Z'-LYTE® Method as briefly described in the following. Test Compounds are screened in 1% DMSO (final) in the well. For 10 point titrations, 3-fold serial dilutions are conducted from the starting concentration. All ATP Solutions are diluted to a 4× working concentration in Kinase Buffer (50 mM HEPES pH 7.5, 0.01% BRIJ-35, 10 mM MgCl2, 1 mM EGTA). Peptide/Kinase Mixtures are diluted to a 2× working concentration in the appropriate Kinase Buffers as described below. (iv) Peptide/Kinase Mixtures for Measurement of EGFR (ErbB1) T790M L858R: The 2×EGFR (ErbB1) […] mixture is prepared in 50 mM HEPES pH 6.5, 0.01% BRIJ-35, 10 mM MgCl2, 1 mM EGTA, 0.02% NaN3. […] After the 1 hour Kinase Reaction incubation, 5 μL of a 1:64 dilution of Development Reagent B is added. Reaction starts by 30-second shaking of mixture consisting of 2.5 μL 4× test compound, 5 μL 2× kinase reaction mixture and 2.5 μL 4×ATP Solution on Bar-coded Corning, low volume NBS, black 384-well plate (Corning Cat. #3676). Then the mixture is incubated for 60-minute at room temperature for the kinase reaction, followed by addition of 5 μL of a 1:1024 dilution of development reagent A and 30-second plate shake. The mixture is then incubated for another 60-minute at room temperature for development reaction. Finally fluorescence is read by plate reader. To determine IC50 of a compound against EGFR, EGFR mutant and other kinases, a series of concentrations of the compound were tested for the inhibition.
Sequence of EGFR (ErbB1) T790M L858R (P00533 25-1210 T790M/L858R): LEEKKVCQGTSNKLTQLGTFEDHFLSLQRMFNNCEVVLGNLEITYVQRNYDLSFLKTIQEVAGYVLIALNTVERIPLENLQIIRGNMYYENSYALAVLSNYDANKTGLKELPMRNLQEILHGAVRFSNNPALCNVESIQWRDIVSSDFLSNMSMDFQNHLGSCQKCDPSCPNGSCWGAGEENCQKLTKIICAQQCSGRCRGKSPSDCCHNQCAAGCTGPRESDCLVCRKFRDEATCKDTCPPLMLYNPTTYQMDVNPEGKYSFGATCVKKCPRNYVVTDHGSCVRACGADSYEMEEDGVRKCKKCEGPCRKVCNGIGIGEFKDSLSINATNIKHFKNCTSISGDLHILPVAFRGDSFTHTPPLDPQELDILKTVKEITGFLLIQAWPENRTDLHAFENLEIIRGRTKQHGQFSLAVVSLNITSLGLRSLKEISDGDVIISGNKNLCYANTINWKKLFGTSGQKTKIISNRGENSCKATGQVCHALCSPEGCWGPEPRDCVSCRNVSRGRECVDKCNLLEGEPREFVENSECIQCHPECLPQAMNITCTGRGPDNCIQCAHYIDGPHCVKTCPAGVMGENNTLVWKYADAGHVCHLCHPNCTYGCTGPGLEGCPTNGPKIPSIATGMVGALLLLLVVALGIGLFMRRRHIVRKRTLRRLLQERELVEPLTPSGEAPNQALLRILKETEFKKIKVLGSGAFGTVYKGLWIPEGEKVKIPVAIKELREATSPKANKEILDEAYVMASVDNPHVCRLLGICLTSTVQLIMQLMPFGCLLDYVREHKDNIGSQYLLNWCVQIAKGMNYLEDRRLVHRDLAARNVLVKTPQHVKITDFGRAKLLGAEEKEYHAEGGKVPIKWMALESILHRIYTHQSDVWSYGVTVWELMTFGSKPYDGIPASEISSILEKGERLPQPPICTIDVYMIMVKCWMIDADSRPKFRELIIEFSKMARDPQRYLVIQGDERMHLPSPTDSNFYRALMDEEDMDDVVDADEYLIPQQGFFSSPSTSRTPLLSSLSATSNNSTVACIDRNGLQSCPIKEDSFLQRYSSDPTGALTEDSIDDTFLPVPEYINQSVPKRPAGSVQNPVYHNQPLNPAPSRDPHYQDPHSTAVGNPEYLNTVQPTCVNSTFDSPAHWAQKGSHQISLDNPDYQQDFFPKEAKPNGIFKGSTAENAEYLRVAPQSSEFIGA

Sequence of FGFR1 (P11362 22-822): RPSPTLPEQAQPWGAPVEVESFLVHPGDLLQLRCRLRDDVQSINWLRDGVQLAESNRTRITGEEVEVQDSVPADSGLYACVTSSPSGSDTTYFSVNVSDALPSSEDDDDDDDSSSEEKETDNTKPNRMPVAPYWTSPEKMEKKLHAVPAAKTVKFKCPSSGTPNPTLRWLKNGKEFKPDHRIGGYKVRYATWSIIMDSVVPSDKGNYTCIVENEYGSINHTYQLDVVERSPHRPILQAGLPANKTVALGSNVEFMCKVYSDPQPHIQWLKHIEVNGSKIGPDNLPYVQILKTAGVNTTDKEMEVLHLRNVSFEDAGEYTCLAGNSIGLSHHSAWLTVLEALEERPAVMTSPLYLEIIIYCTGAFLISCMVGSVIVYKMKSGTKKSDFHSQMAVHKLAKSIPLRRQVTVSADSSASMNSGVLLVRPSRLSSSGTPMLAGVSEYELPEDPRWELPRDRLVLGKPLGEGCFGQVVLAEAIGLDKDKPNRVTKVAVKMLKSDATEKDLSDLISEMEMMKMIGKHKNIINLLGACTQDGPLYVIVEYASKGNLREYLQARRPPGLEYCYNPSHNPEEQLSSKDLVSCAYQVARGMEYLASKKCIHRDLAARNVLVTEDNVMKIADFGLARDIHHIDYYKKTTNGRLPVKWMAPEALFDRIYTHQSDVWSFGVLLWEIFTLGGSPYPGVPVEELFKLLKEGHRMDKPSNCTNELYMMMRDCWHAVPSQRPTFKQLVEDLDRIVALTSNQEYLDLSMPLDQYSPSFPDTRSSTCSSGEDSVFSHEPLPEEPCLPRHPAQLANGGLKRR
Sequence of BTK (Q06187 whole entry): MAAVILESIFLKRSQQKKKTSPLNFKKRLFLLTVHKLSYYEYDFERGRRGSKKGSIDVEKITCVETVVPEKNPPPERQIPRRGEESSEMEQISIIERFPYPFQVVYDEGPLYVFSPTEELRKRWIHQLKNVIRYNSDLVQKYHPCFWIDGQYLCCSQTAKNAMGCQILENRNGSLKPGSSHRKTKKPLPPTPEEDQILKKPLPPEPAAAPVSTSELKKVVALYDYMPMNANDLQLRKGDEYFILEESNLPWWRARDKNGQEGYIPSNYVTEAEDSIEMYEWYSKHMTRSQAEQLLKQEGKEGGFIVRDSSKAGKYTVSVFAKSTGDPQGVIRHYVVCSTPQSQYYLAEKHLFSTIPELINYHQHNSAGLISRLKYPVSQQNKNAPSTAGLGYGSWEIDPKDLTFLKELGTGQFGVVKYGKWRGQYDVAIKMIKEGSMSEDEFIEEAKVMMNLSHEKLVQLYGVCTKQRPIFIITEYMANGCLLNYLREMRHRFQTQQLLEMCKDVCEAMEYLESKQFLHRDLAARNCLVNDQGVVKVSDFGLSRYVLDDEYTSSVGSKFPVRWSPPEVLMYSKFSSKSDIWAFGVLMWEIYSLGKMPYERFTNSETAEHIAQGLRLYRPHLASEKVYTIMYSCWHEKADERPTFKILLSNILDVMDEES
Sequence of JAK2 (O60674 whole entry): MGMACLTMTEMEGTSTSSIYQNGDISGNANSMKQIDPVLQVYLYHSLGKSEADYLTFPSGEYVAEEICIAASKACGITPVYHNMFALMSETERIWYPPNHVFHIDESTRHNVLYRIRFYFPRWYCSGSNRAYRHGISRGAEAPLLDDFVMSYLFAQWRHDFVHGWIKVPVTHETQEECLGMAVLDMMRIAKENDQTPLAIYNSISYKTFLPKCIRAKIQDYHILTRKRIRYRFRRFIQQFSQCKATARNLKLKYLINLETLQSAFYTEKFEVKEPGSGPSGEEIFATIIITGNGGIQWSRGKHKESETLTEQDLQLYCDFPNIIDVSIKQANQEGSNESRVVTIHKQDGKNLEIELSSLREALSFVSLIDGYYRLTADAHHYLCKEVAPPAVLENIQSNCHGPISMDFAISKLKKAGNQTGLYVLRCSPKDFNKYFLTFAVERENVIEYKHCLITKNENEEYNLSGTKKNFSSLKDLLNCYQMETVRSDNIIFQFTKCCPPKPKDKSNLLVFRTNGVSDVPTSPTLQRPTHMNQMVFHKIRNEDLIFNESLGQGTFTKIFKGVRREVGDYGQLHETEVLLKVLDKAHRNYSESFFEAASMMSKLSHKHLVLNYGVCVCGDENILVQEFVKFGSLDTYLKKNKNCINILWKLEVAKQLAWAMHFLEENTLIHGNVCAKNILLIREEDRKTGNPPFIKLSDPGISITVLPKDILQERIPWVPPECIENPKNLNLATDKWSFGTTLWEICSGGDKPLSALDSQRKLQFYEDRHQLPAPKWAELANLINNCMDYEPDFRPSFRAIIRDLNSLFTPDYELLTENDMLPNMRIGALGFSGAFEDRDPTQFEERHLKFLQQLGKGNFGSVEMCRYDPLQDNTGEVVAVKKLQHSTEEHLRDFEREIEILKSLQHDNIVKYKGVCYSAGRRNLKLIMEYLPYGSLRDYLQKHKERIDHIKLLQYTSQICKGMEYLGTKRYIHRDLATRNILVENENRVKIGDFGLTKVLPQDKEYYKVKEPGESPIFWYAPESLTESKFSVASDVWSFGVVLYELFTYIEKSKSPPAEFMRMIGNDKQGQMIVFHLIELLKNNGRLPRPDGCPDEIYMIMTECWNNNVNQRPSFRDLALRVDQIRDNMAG

In the case of `C=CC(=O)Nc1cccc(-c2cccc3cnc(Nc4ccc(N5CCOCC5)cc4)nc23)c1` [Example C001, N-(3-(2-((4-morpholinophenyl)amino)quinazolin-8-yl)phenyl)acrylamide], the inhibition at 0.041 µM on FGFR1, on BTK and at JAK2 was > 50% each time.

For `Fc1cccc(-c2cccc3cnc(Nc4ccc(N5CCNCC5)cc4)nc23)c1` [Example C027, 8-(3-fluorophenyl)-N-(4-(piperazin-1-yl)phenyl)quinazolin-2-amine], the inhibition at 0.041 µM at FGFR1 was > 50%.

Turning to `C=CC(=O)Nc1cccc(-c2cccc3cnc(Nc4ccc(N5CCN(C(C)=O)CC5)nc4)nc23)c1` [Example C036, N-(3-(2-((6-(4-acetylpiperazin-1-yl)pyridin-3-yl)amino)quinazolin-8-yl)phenyl)acrylamide], the inhibition at 0.041 µM on FGFR1 was < 50%.

As for `C=CC(=O)Nc1cccc(-c2cccc3cnc(Nc4ccc(N5CCN(C)CC5)c(OC)c4)nc23)c1` [Example C075, N-(3-(2-((3-methoxy-4-(4-methylpiperazin-1-yl)phenyl)amino)quinazolin-8-yl)phenyl)acrylamide], the inhibition at 0.041 µM at FGFR1 is > 50%.

`C=CC(=O)Nc1cccc(-c2cccc3cnc(Nc4ccc(N5CCN(C)CC5)cc4)nc23)c1` [Example C021, N-(3-(2-((4-(4-methylpiperazin-1-yl)phenyl)amino)quinazolin-8-yl)phenyl)acrylamide]: the inhibition at 0.0137 µM on EGFR (ErbB1) T790M L858R is > 50%. Besides, the inhibition at 0.041 µM at JAK2 was > 50%.

As for `C=CC(=O)Nc1cccc(-c2cccc3cnc(Nc4ccc(N5CCN(C(C)=O)CC5)cc4)nc23)c1` [Example C032, N-(3-(2-((4-(4-acetylpiperazin-1-yl)phenyl)amino)quinazolin-8-yl)phenyl)acrylamide], the inhibition at 0.0137 µM on EGFR (ErbB1) T790M L858R is < 50%. Also, the inhibition at 1 µM on EGFR (ErbB1) T790M L858R (read-out: % inhibition EGFR L858R/T790M (Compound at 1 μM)) is > 50%. The inhibition at 0.041 µM on BTK and at JAK2 was > 50% each time.

In the case of `C=CC(=O)Nc1cccc(-c2nccc3c(N)nc(Nc4ccc(N5CCOCC5)cc4)nc23)c1` [Example C005, N-(3-(4-amino-2-((4-morpholinophenyl)amino)pyrido[3,4-d]pyrimidin-8-yl)phenyl)acrylamide], the values for the inhibition at 0.041 µM at BTK and on JAK2 were > 50% and < 50%, respectively.

On to `C=CC(=O)Nc1cccc(-c2cccc3cnc(Nc4ccc(N5CCN(C)CC5)nc4OC)nc23)c1` [Example C055, N-(3-(2-((2-methoxy-6-(4-methylpiperazin-1-yl)pyridin-3-yl)amino)quinazolin-8-yl)phenyl)acrylamide], for which the inhibition at 0.041 µM on BTK and on JAK2 was < 50% in each case.

For `C=CC(=O)Nc1cccc(-c2cccc3cnc(Nc4ccc(N5CCN(CCO)CC5)cc4)nc23)c1` [Example C059, N-(3-(2-((4-(4-(2-hydroxyethyl)piperazin-1-yl)phenyl)amino)quinazolin-8-yl)phenyl)acrylamide], the inhibition at 0.0137 µM on EGFR (ErbB1) T790M L858R is > 50%. Further, the inhibition at 0.041 µM on FGFR1 was > 50%.

With `C=CC(=O)Nc1cccc(-c2nccc3cnc(Nc4ccc(N5CCOCC5)cc4)nc23)c1` [Example C012, N-(3-(2-((4-morpholinophenyl)amino)pyrido[3,4-d]pyrimidin-8-yl)phenyl)acrylamide], the inhibition at 0.041 µM is > 50% on BTK and < 50% on JAK2.

On to `C=CC(=O)Nc1cccc(-c2cccc3cnc(Nc4ccc(N5CCN(CCF)CC5)cc4)nc23)c1` [Example C053, N-(3-(2-((4-(4-(2-fluoroethyl)piperazin-1-yl)phenyl)amino)quinazolin-8-yl)phenyl)acrylamide], for which the inhibition at 0.041 µM on FGFR1, on BTK and on JAK2 was > 50% each time.

Take `C=CC(=O)Nc1cccc(-c2cccc3cnc(Nc4ccc(N5CCN(C)CC5)cc4F)nc23)c1` [Example C044, N-(3-(2-((2-fluoro-4-(4-methylpiperazin-1-yl)phenyl)amino)quinazolin-8-yl)phenyl)acrylamide]: the inhibition at 0.041 µM on FGFR1 was < 50%.

`C=CC(=O)Nc1cccc(-c2c(C)ccc3cnc(Nc4ccc(N5CCOCC5)cc4)nc23)c1` [Example C033, N-(3-(7-methyl-2-((4-morpholinophenyl)amino)quinazolin-8-yl)phenyl)acrylamide]: the values for the inhibition at 0.041 µM on BTK and at JAK2 were > 50% and < 50%, respectively.

On to `c1ccc(-c2cccc3cnc(Nc4ccc(N5CCOCC5)cc4)nc23)cc1` [Example C004, N-(4-morpholinophenyl)-8-phenylquinazolin-2-amine], for which the inhibition at 0.041 µM is < 50% at BTK and > 50% at JAK2.

For `Clc1cccc(-c2cccc3cnc(Nc4ccc(N5CCOCC5)cc4)nc23)c1` [Example C008, 8-(3-chlorophenyl)-N-(4-morpholinophenyl)quinazolin-2-amine], the inhibition at 0.041 µM at FGFR1 and at BTK was < 50% in each case.

For `C=CC(=O)Nc1cccc(-c2cccc3cnc(Nc4ccc(N5CCN(C(C)=O)CC5)cc4)nc23)c1Cl` [Example C051, N-(3-(2-((4-(4-acetylpiperazin-1-yl)phenyl)amino)quinazolin-8-yl)-2-chlorophenyl)acrylamide], the inhibition at 0.041 µM on FGFR1 is < 50%.

As for `Fc1ccc(OCCN2CCOCC2)cc1-c1cccc2cnc(Nc3ccc(N4CCOCC4)cc3)nc12` [Example C023, 8-(2-fluoro-5-(2-morpholinoethoxy)phenyl)-N-(4-morpholinophenyl)quinazolin-2-amine], the inhibition at 0.041 µM on FGFR1, at BTK and at JAK2 was < 50% each time.

For the molecule `C=CC(=O)Nc1cncc(-c2cccc3cnc(Nc4ccc(N5CCN(C)CC5)cc4)nc23)c1` [Example C040, N-(5-(2-((4-(4-methylpiperazin-1-yl)phenyl)amino)quinazolin-8-yl)pyridin-3-yl)acrylamide], at EGFR (ErbB1) T790M L858R, the inhibition at 0.0137 µM was > 50%. In addition, the inhibition at 0.041 µM at BTK is > 50%; at JAK2 it was < 50%.
